Measurements reported in US20240299504A1, “COMPOSITIONS AND METHODS FOR TREATING ALZHEIMERS DISEASE” (priority 2023, published 2024).

What was measured:
[1] = system: PYD (pyridinoline); test: Serum PYD ELISA (bone resorption marker); type: in vivo, mouse; conditions: 6-MO female 5×FAD mice, compared to WT controls; 50 μg/Kg s.c. intermittent
Procedure: (§1) Parathyroid hormone (human) was purchased from TOCRIS Bioscience (Cat #3011/1, Abingdon, United Kingdom). WT or 5×FAD mice (both male and female) were treated with PTH1-34 intermittently [once daily injection of hPTH1-34 (50 μg/Kg) or vehicle (0.9% sodium chloride) (as a control) by subcutaneous injection, starting at 2-MO, 5 days per week] as described previously. Mice were then subjected to behavioral tests and sacrificed for examinations of their bone and brain phenotypes at the indicated ages.
Submandibular blood collection was performed in anesthetized mice. A swift lancing motion is used to puncture the vessel. Blood sample (up to 200 μl) was collected with a pipette or other collection tube, allowed to stand at room temperature for 30 min and centrifuged for 15 min at 3000 rpm. Supernatant serum was aliquot and frozen at −80° C. until use. Mouse serum levels of osteocalcin (a marker for bone formation), PYD (pyridinoline, a marker for bone resorption), and PTH were measured using mouse osteocalcin Elisa kit (QUIDEL Corporation), METRA Serum PYD EIA kit (QUIDEL Corporation, San Diego, CA, USA), and mouse PTH Elisa kit (MyBioSource), respectively, following the manufacturers' instruction.

[2] = system: 5×FAD mice; test: Y-maze test; type: in vivo, mouse; conditions: 5×FAD female mice ~5-MO vs Veh-treated 5×FAD female
Procedure: as §1
Mice (female and male) at the age of ˜5-MO were subjected to behavioral studies. The experimental procedures are described as previously. […] The total arm entries and the number of tri-ads were recorded to quantify the percentage of spontaneous alternation. For novel object recognition (NOR), which tests mouse's memory ability for a novel object, 20 min were recorded to analyze the time to explore the old object vs. the new object of each mouse. […] During test trials, one of the objects was replaced with a new object and mice were free to explore for another 20 min, and the time spent exploring the new object and the old object was recorded. The discrimination index is quantified as the novelty object preference, which is the time spent exploring the new object minus the time exploring the old object over the total exploration time.

[3] = system: Aβ plaques; test: Aβ deposition assay (Thioflavin S staining); type: in vivo, mouse; conditions: vs Veh
Procedure: as §1
Thioflavin S (Thio-S) staining was used for Aβ deposition assay as previously described with minimal modification. Beginning with the lateral-most section in the ROI (region of interest), every sixth tissue section of six consecutive sections was used. […] The brain slices were then washed with a series of graded EtOH in the dark as follows: 95% EtOH for 2 min, 80% EtOH for 2 min, and 70% EtOH for 2 min. Finally, the brain slices were washed with PBS 3 times in the dark and transferred to slides for sealing with an antifade fluorescence mounting medium. All the brain slices were captured on a Laser confocal microscopy. The images were adjusted to the same threshold to increase signal-to-noise ratio. Plaques >5.5 μm^2 were quantified. Four sections per mouse were quantified. The layers or sub-regions of cortex and hippocampus in each image were outlined and analyzed with the National Institutes of Health ImageJ software.

[4] = system: primary cultured astrocytes from WT and 5×FAD pups; test: PTH1-34 induced signaling in primary cultured astrocytes (Western blot); type: cell-based, mouse; conditions: 100 ng/ml PTH1-34, time course
Procedure: Total proteins from cortex, hippocampus, or cultured astrocytes were extracted using RIPA lysis buffer [50 mM Tris-HCl (pH7.5), 150 mM NaCl, 1 mM EDTA, 1% v/v NP-40, 0.1% SDS, 1% sodium deoxycholate supplemented with Protease Inhibitor Cocktail (Roche) and 1 mM PMSF] and analyzed by Western Blot. Lysates were cleared by centrifugation at 12,000 g for 15 min at 4° C. to remove debris and to obtain homogenates. Homogenates samples were resolved by SDS-PAGE (8˜15%) gels and then electroblotted onto nitrocellulose membranes (Cat #1620112, Bio-Rad Laboratories). Membranes were blocked with 5% BSA (w/v) in TBS-Tween (50 mM Tris, 150 mM NaCl, pH7.6 and 0.1% v/v Tween-20) for 1 h and then probed with indicated primary antibodies overnight in 4° C. Membranes were washed with TBST 4 times and incubated with HRP-conjugated secondary antibodies (1:5000 in TBST) at room temperature for 1 h. After washing with TBST 3 times, antibody reactivity was detected by the Enhanced Chemiluminescence (ECL) detection system (Amersham Biosciences). Band density of proteins was normalized in relation to loading control and analyzed using NIH ImageJ software. Primary anti-bodies used were as follows: IBA1 (ab178846, rabbit), p16 (ab51243, rabbit), p53 (ab131442, rabbit), and anti-beta Actin (ab8226, mouse) from Abcam (Cambridge, MA, USA); GFAP (12389, rabbit), p-CREB (Ser133) (9198S, rabbit), p-AKT(S473) (4060P, rabbit), AKT (9272S, rabbit) and GAPDH (97166S, mouse) from Cell Signaling (Danvers, MA, USA); PTH1R (PA5-77,689, rabbit) from Invitrogen (Carlsbad, CA, USA); p-ERK1/2 (sc-136521, mouse) and ERK1/2 (sc-514302, mouse) from Santa Cruz Biotechnology (Santa Cruz, CA, USA).
Astrocyte culture was performed according to the standard protocol with some modifications as described in previous literature. In brief, the cerebral cortex and hippocampus of postnatal day 3 (P3) female pups were dissected under a stereomicroscope and placed in ice-cold calcium- and magnesium-free HBSS (Hanks Balanced Salt Solution). […]

Structure (SMILES): CC[C@H](C)[C@H](NC(=O)[C@H](CCC(=O)O)NC(=O)[C@H](CO)NC(=O)[C@@H](NC(=O)[C@@H](N)CO)C(C)C)C(=O)N[C@@H](CCC(N)=O)C(=O)N[C@@H](CC(C)C)C(=O)N[C@@H](CCSC)C(=O)N[C@@H](Cc1cnc[nH]1)C(=O)N[C@@H](CC(N)=O)C(=O)N[C@@H](CC(C)C)C(=O)NCC(=O)N[C@@H](CCCCN)C(=O)N[C@@H](Cc1cnc[nH]1)C(=O)N[C@@H](CC(C)C)C(=O)N[C@@H](CC(N)=O)C(=O)N[C@@H](CO)C(=O)N[C@@H](CCSC)C(=O)N[C@@H](CCC(=O)O)C(=O)N[C@@H](CCCN=C(N)N)C(=O)N[C@H](C(=O)N[C@@H](CCC(=O)O)C(=O)N[C@@H](Cc1c[nH]c2ccccc12)C(=O)N[C@@H](CC(C)C)C(=O)N[C@@H](CCCN=C(N)N)C(=O)N[C@@H](CCCCN)C(=O)N[C@@H](CCCCN)C(=O)N[C@@H](CC(C)C)C(=O)N[C@@H](CCC(N)=O)C(=O)N[C@@H](CC(=O)O)C(=O)N[C@H](C(=O)N[C@@H](Cc1cnc[nH]1)C(=O)N[C@@H](CC(N)=O)C(=O)N[C@@H](Cc1ccccc1)C(=O)O)C(C)C)C(C)C [PTH1-34]
- serum PYD levels [1]: little to no effect on serum PYD levels in 5×FAD mice
- Y maze total arm entries [2]: comparable arm entries to those of Veh-treated 5×FAD female mice
- reduction in plaque density ([3]; female 5×FAD cortex): ~46%
- reduction in plaque size ([3]; female 5×FAD cortex): ~34%
- reduction in plaque density ([3]; female 5×FAD hippocampus): ~59%
- reduction in plaque size ([3]; female 5×FAD hippocampus): ~56%
- reduction in plaque density ([3]; male 5×FAD cortex): ~32%
- reduction in plaque size ([3]; male 5×FAD cortex): ~28%
- reduction in plaque density ([3]; male 5×FAD hippocampus): ~50%
- reduction in plaque size ([3]; male 5×FAD hippocampus): ~23%
- p-AKT protein level [4]: little effect
- p-CREB protein level [4]: increases p-CREB
- p-ERK protein level [4]: little effect
